This is an account of results in ChEMBL document CHEMBL1201862, “PubChem BioAssay data set” (2004).

The structures appear in SMILES notation. Active and inactive are the calls of the source.

A short description of assay [1]: THP-1 cell cytotoxicity, dose response, cytotoxicity control for non-replicating M. tuberculosis project (AID 489025). It counts as functional.
The target of assay [2] is T1, Sphingosine 1-phosphate receptor 4 (Homo sapiens, UniProt O95977).
T1 sequence (O95977 whole entry): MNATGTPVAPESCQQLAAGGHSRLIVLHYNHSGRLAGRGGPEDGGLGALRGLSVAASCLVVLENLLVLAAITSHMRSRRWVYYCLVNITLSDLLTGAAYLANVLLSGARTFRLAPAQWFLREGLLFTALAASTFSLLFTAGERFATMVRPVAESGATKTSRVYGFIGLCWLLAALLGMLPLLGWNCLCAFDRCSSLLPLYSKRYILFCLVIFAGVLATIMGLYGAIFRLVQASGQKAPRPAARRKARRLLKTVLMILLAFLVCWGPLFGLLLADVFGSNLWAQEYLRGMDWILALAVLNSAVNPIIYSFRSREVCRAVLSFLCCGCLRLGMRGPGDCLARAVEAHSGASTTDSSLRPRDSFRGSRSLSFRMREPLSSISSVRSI
Kind of assay: Fluorescence dose response cell-based high throughput screening assay for antagonists of the Sphingosine 1-Phosphate Receptor 4 (S1P4). [Related pubchem assays: 1524 (Confirmation in triplicates.), 1510 (Primary screen.)]. Format: functional.

Assay [3] in a line: Luminescence Cell-Based Dose Confirmation HTS to Identify Activators of 5'UTR Stem-Loop Driven Alpha-Synuclein mRNA Translation in H4 Neuroglioblastoma Cells. [Related pubchem assays: 1829 (Project Summary), 1814 (Primary HTS)]. Format: functional.
Assay [4] is described as follows: Luminescence Cell-Based Dose Response HTS to Identify Activators of Luciferase Translation or Activity in H4 […] Cells. [Related pubchem assays: 1829 (Project Summary), 1814 (Primary HTS)]. Format: functional.
Assay [5] concerns the target Sphingosine 1-phosphate receptor 1 (Homo sapiens, UniProt P21453). Format: functional.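 Further: Tango beta-arrestin reporter U2OS cells stimulated with S1P near its EC80; inhibitor potency meaning antagonism of receptor activation by the natural agonist.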
Assay [6] can be described thus: inhibitors of PGC1a acetylation in cells, dose response, cell-based, cherry-picked samples (AID 720514).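 Further: potency may reflect raised or lowered acetylation signal.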 It counts as functional.
Assay [7] addresses T2, Histone-lysine N-methyltransferase NSD2 (Homo sapiens, UniProt O96028).
T2 sequence (O96028 whole entry): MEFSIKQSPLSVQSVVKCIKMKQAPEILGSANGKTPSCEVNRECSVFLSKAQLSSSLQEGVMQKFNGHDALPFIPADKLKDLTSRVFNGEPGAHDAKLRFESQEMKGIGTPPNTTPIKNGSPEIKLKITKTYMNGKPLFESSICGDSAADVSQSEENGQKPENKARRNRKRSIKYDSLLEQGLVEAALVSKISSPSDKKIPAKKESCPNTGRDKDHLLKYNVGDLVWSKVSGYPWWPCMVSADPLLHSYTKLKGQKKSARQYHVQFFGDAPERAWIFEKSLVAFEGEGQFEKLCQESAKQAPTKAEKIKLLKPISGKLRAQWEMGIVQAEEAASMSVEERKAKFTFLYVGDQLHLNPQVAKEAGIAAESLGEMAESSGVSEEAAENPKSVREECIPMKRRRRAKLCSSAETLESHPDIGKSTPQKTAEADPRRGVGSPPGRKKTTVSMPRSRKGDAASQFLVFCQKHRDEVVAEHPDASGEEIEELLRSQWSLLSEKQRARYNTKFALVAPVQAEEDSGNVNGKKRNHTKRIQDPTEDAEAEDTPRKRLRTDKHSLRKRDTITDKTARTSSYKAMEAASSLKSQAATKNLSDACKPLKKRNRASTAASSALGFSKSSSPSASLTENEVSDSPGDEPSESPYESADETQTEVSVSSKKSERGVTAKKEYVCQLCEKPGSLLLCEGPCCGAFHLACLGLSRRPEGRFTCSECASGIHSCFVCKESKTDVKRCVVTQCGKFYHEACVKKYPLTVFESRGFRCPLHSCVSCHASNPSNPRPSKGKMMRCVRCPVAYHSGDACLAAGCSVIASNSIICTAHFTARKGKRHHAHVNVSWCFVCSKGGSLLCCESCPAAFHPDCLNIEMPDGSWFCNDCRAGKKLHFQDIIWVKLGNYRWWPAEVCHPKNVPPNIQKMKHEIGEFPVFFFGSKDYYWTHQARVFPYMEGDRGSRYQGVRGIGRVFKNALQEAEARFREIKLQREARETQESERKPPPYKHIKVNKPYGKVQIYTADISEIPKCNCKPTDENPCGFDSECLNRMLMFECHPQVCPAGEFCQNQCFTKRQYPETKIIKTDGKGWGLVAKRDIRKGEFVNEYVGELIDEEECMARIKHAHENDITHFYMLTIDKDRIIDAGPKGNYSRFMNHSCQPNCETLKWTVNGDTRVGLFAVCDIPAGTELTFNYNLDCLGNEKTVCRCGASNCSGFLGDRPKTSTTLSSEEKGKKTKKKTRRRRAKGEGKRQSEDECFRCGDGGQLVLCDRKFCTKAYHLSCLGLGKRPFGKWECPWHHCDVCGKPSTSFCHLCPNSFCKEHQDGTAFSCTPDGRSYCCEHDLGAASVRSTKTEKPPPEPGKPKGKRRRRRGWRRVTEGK
It counts as biochemical.

A further assay deals with SUMO-activating enzyme (Homo sapiens, UniProt Q9UBT2). Kind of assay: inhibitors of in vitro SUMOylation cascade, primary screen, biochemical, HTRF, uHTS (AID 2006). It counts as protein-complex assay.
Chain of SUMO-activating enzyme (Q9UBE0 whole entry): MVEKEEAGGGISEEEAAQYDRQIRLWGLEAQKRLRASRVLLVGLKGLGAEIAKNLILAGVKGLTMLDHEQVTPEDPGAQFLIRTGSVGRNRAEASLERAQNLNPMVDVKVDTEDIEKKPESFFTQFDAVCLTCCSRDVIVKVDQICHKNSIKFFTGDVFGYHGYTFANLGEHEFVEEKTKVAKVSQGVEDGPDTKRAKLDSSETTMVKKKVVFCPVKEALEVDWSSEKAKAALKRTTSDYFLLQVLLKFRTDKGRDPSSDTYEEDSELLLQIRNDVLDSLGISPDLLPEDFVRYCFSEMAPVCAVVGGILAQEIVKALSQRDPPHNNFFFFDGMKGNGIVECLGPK
Chain of SUMO-activating enzyme (Q9UBT2 whole entry): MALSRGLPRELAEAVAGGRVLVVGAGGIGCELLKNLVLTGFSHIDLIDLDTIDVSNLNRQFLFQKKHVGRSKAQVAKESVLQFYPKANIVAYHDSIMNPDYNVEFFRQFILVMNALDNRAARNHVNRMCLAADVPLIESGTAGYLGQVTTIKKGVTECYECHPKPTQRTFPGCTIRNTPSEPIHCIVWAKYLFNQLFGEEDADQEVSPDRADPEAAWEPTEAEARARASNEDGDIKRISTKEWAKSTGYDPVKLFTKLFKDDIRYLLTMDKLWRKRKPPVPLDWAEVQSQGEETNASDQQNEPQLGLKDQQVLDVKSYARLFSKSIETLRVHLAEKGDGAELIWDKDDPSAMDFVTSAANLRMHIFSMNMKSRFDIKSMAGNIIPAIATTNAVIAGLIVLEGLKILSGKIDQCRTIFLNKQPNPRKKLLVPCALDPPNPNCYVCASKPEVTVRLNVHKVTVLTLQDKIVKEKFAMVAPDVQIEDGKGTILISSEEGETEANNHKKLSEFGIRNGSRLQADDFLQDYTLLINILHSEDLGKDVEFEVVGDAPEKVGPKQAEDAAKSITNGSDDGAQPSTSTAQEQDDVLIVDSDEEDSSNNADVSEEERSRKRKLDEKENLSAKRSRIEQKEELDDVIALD

Chain of Sphingosine 1-phosphate receptor 1 (P21453 whole entry): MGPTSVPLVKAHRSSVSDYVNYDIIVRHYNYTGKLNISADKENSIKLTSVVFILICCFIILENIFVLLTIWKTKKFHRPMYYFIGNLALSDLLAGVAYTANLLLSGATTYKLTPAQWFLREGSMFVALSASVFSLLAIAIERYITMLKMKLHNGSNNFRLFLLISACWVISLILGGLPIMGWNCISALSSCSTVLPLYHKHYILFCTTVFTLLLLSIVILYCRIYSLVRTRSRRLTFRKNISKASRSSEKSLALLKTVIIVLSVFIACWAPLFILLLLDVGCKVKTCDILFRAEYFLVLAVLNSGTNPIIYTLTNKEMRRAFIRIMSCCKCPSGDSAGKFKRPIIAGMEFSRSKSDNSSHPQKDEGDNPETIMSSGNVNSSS

As to `O=C(Nc1ccccc1)c1nnsc1[S+]([O-])c1ccc(Cl)cc1` (stereo not drawn), in assay [1], the CC50 was 23.4 µM (active). The 50% inhibitory concentration (IC50) in assay [2] is 1.15 µM (active); in assay [5] it was > 49.8 µM (not active). Further, the EC50 in assay [3] is 8.7 µM (active); in assay [4] it was 4.31 µM (active). Further, in assay [6], the AC50 is 10.3 µM (active).
Regarding `CC1OC(Nc2cccc3ccccc23)C(O)C(O)C1O` (stereo not drawn), in assay [7], the AC50 is 9.24 µM (active).
As for `O=C1C=C(Nc2ccccc2)c2ccccc2C1=O`, the IC50 at SUMO-activating enzyme is 20.7 µM (active).

In general, CC50 refers to the concentration that lowers cell viability or growth by half. Usually IC50 stands for the concentration at which inhibition is half-maximal. What is called EC50 is the midpoint of the concentration-response curve. A word on the AC50: it is the midpoint of the concentration-response curve, whichever way the signal moves.
